Laboratory results from PMC9481151, “Discovery of new symmetrical and asymmetrical nitrile-containing 1,4-dihydropyridine derivatives as dual kinases and P-glycoprotein inhibitors: synthesis, in vitro assays, and in silico studies” (Journal of Enzyme Inhibition and Medicinal Chemistry, 2022).

How the values were obtained:
HCT-116 cells = assay: In vitro cytotoxicity; settings: Homo sapiens, HCT-116, read-out: Cytotoxicity IC50, HCT-116
[1] = system: drug-resistant HCT-116/ADR cells; assay: Potentiation of DOX cytotoxicity (reversal DOX effect, P-gp modulation); format: cell-based, human; settings: IC50 (DOX) without modulator / IC50 (DOX) with modulator
HCT-116/ADR cells = assay: cells; settings: Homo sapiens, HCT-116, read-out: Cytotoxicity IC50, HCT-116/ADR
HER-2 = HER-2 (Homo sapiens, UniProt P04626); assay: HER-2 kinase inhibitory activity; format: biochemical; settings: (IC50 lapatinib/IC50 Compound)*100
Chain of HER-2 (P04626 23-1255): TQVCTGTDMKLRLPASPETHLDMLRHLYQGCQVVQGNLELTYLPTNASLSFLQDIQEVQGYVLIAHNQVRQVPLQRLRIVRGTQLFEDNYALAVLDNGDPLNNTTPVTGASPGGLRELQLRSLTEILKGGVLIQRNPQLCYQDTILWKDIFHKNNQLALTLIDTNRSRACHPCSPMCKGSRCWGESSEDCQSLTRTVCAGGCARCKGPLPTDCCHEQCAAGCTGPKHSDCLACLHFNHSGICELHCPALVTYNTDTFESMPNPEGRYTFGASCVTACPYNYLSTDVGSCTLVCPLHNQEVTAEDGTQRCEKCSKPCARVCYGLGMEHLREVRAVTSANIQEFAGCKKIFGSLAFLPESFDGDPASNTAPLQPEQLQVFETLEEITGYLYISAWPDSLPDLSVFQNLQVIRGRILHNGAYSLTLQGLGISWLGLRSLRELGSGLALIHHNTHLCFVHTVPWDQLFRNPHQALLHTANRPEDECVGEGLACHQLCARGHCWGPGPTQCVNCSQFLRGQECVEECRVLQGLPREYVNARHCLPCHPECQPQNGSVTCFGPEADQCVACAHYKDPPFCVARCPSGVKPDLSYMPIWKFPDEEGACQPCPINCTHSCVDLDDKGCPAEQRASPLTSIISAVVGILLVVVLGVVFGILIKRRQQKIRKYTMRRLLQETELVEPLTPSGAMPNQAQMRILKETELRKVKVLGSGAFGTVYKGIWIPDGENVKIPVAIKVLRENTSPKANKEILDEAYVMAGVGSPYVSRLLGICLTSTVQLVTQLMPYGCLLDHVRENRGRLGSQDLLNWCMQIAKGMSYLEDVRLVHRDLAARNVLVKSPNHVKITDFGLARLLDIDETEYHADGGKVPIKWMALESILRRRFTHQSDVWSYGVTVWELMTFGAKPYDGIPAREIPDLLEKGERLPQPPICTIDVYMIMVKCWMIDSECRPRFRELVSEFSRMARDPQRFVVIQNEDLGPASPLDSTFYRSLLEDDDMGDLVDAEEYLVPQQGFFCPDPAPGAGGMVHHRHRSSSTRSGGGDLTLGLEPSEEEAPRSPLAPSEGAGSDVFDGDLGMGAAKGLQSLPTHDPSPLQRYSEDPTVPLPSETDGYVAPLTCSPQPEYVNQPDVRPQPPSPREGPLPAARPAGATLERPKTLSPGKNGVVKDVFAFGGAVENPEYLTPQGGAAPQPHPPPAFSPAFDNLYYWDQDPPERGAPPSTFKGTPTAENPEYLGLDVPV

BTK = BTK (Homo sapiens, UniProt Q06187); assay: BTK inhibitory activity; format: biochemical; settings: (IC50 lapatinib/IC50 Compound)*100
Chain of BTK (Q06187 whole entry): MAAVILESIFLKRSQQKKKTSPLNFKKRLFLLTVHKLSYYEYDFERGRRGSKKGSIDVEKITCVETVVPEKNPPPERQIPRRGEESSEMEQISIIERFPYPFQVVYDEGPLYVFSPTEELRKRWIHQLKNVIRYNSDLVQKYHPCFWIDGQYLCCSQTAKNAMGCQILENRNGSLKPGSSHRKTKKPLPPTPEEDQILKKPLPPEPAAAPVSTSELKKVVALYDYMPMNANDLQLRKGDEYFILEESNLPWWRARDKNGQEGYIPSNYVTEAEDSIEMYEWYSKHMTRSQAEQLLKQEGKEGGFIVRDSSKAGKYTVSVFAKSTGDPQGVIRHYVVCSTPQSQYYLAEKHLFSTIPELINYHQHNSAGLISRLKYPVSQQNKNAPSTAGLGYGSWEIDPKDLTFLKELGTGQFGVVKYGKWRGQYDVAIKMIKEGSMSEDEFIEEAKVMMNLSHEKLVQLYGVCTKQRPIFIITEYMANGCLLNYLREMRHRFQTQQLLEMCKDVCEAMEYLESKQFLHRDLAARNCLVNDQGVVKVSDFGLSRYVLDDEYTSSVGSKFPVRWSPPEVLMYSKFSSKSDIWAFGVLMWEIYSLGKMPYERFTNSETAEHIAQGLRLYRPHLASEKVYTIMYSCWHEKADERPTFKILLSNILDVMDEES

| SMILES | IC50 (HCT-116 cells) | RF (reversal fold activity) [1] | IC50 (HCT-116/ADR cells) | HER-2 Potency (HER-2) | BTK Potency (BTK) |
| --- | --- | --- | --- | --- | --- |
| COc1cccc2c1C(=O)c1c(O)c3c(c(O)c1C2=O)C[C@@](O)(C(=O)CO)C[C@@H]3O[C@H]1C[C@H](N)[C@H](O)[C@H](C)O1 [DOX, Doxorubicin, reference compound] | 1.15 ± 0.43 µM | 1 | 16.91 ± 0.14 µM | – | – |
| CS(=O)(=O)CCNCc1ccc(-c2ccc3ncnc(Nc4ccc(OCc5cccc(F)c5)c(Cl)c4)c3c2)o1 [Lapatinib, reference compound] | – | – | – | 100.0% | 100.0% |
